US7208517B1, “Endothelin antagonists” (Abbott Labortories, priority 1994, dated 2007)
In brackets after ≈: the same amount, converted by molar mass.

What was measured:
[1] = test system: male subjects with hormone refractory prostate cancer; experiment: Bone alkaline phosphatase (BAP) levels of treated subjects; format: in vivo, human; conditions: subjects treated versus placebo
Experimental: (§1) Studies were performed on male subjects with asymptomatic hormone refractory prostate cancer with rising PSA levels and on male subjects with symptomatic hormone refractory prostate cancer with rising PSA levels and pain. Subjects in the phase II studies had castrate levels of testosterone, either due to pharmacologic intervention, via leuprolide (Lupron®) or goserelin (Zoladex®), or via surgical castration. Subjects received ABT-627 or placebo. The following tests were conducted:
(§2) ABT-627 was formulated in 2.5 and 10 mg doses. An oral liquid formulation of ABT-627 was also prepared as follows: 1 mg/ml ABT-627, 50% glycerin, 14% alcohol, and water. Matching placebos were also provided.
Markers of osteoblastic activity were assessed using […]. Bone markers include bone alkaline phosphatase (BAP), deoxypridinoline, and N-telopeptide of Type I collagen. Blood samples were collected prior to dosing on Day 1, Day 42, Day 84, Day 168, and every 28 days after Day 168, with a final collection on the last day of the study.
Bone Alkaline Phosphatase levels were determined using the bone-specific Alkphase-B® assay published by Metra Biosystems (Mountain View, Calif.).

[2] = test system: male subjects with hormone refractory prostate cancer; experiment: Acid phosphatase levels in serum of treated subjects; format: in vivo, human; conditions: subjects treated with placebo or 2.5 mg or 10 mg
Experimental: as §1, §2
The enzyme Acid Phosphatase (ACP) catalyzes the hydrolysis of alpha-naphthyl phosphate to alpha-naphthol and inorganic phosphate. The alpha-naphthol immediately reacts with fast red TR salt to produce a yellow chromophore with an absorbance maximum at 405 nm. The rate of increase in absorbance at 405 nm is directly proportional to ACP activity in the sample. ACP activity was determined in the presence and absence of L-tartrate, the difference being attributed to prostatic acid phosphatase activity.
Briefly, a subject population was treated with a placebo or 2.5 mg or 10 mg of ABT-627. […] The mixture was incubated for another 5 minutes, and a second absorbance was read to provide a final absorbance. […]

[3] = test system: male subjects with hormone refractory prostate cancer; experiment: Chromagranin-A levels in serum of treated subjects; format: in vivo, human; conditions: 2.5 mg/day
Experimental: as §1, §2
The effect of ABT-627 adminstration on Chromagranin-A levels in human serum samples was determined by proprietary assay conducted at the Nichols Institute. The procedure is a two site chemiluminescence assay (ICMA) using one monoclonal antibody conjugated with biotin, another monoclonal antibody labeled with an acridinium ester, and an avidin-coated solid phase. The antibody/Chromagranin-A/antibody complex is bound to the solid phase by the avidin-biotin interaction and unbound materials are removed by washing. The bound, acridinium-labeled material produces light that is detected in a luminometer after addition of triggering agents. The Limit of Detection (LOD) for the assay was 0.07 ng/mL.

[4] = pH-solubility profile: maximum solubility in aqueous media at varying pH; format: physicochemical; conditions: aqueous buffer
Source text: Such increased aqueous solubility, coupled with the enhanced potency resulting from decreased protein binding, might make such compounds preferred for development as parenteral agents.

[5] = Determination of plasma protein binding (ultrafiltration, HPLC); format: in vitro ADME; set-up: fraction unbound at 1 h: dose or concentration left out as unconfirmed; conditions: fresh plasma, 1 hour at room temperature, read-out: percent of bound compound (plasma protein binding, % PB) (converted)
Experimental: A stock solution of the test compound in 50% ethanol (2 mg/mL) was diluted 10× into PBS. A 0.4 mL sample of this secondary stock solution was added to 3.6 mL of fresh plasma, and incubated at room temperature for 1 hour. A 1 mL sample of this incubation mixture was transferred to a Centrifree ultrafiltration tube. The sample was centrifuged in a fixed-bucket rotor for approximately 2 min and the filtrate was discarded. The sample was centrifuged for another 15–30 min. A 100 μL sample of the ultrafiltrate was transfered to a micro HPLC sample vial containing […] of HPLC mobile phase and mixed thoroughly. A 50 μL sample was injected and the concentration of drug in the ultrafiltrate was determined by HPLC analysis compared against a standard sample prepared identically in the absence of plasma. Ultrafiltrate concentrations are calculated from a calibration curve. Protein binding is calculated according to the equation: % PB=[1−(Cu/Ci)]*100%
where Cu is the ultrafiltrate concentration and Ci is the initial plasma concentration.

solubility ([4]; pH 5.1, about 25° C.) [µg/mL] | solubility ([4]; pH 6.5, about 25° C.) [µg/mL] | solubility ([4]; pH 7.1, about 25° C.) [µg/mL] | solubility ([4]; pH 7.6, about 25° C.) [µg/mL] | fraction unbound at 1 h [5] | SMILES | BAP levels (AUC, FIG. 5) [1] | rate of increase and average change from baseline for acid phosphatase (AUC, FIG. 7) [2] | average change from baseline for Chromagranin-A (AUC, FIG. 8) [3]
 |  |  |  |  | CCCCCN(CCCC)C(=O)CN1C[C@H](c2ccc3c(c2)OCO3)[C@@H](C(=O)O)[C@@H]1c1ccc(OC)cc1 [ABT-627] | BAP levels decreased | the rate of increase and the average change from baseline for acid phosphatase was decreased | the average change from baseline for Chromagranin-A was higher
> 3300 | > 3400 | 3540 (≈ 6.66 mM) | 3550 (≈ 6.68 mM) | 0.08 | CCCCN(C(=O)CN1CC(c2ccc3c(c2)OCO3)C(C(=O)O)C1c1ccc(OC)cc1)c1cccnc1 (centres unmarked) [compound 531] |  |  | 
